The series concerns human dermal fibroblasts. Type of series: cell-based. Particulars: 24 h. How it is done: Specifically, human dermal fibroblasts (manufactured by PromoCell) were subcultured in a 24-well plate using a medium for cells in a proportion of 3×10^4 cells/well. […] After 24 hours, the viability of the cells was analyzed.
The viability of the cells was analyzed as follows. The cells were incubated at 37° C. and 5% CO2 for 1 hour in the presence of Neutral Red (pigment) (The live cells incorporating Neutral Red, thereby making the cells distinguishable from dead cells or damaged cells, and quantifiable). Next, 50% ethanol and a solution of 0.05 M NaH2PO4 were added to the cells to thereby extract out the pigment from the cells. Thereafter, the absorbance of the cells was measured with a spectrophotometer at 540 nm, and compared to that of the cells unexposed to the light, and shown as viability (%)=(analytical value at 540 nm of the photo-irradiated cells×100/analytical value at 540 nm of the cells not irradiated with light) in Table 26.
The evaluation was made in the same manner as in Example 231 except that the composition used during the incubation for 24 hours was changed to have the components as listed in Tables 26 to 29.

As for `C[C@H](O)[C@H](O)[C@@H](O)[C@@H](O)C=O` [rhamnose], the viability result is reported as “about 5%”.

The record behind these values is patent US11446319B2, “Composition containing flavonoid-cyclodextrin clathrate compound” (TAIYO KAGAKU CO., LTD., priority 2018, dated 2022).
